Assay results as given in PubChem BioAssay (NCI).
Where “and” joins values, the source holds several entries; their conditions need not be identical. Equal entries are not always repeated.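 Cells were grown in 96-well plates and exposed to each compound for 48 hours at five concentrations; endpoints were interpolated linearly between bracketing concentrations, or set to the highest concentration if not reached. Abbreviation: GI50, concentration required for 50% inhibition of growth. At the TGI there is no net growth.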

Assays:
Experiment in all cases: NCI anticancer screen, dose series, 48 h
SF-295 CNS = tested on: SF-295 CNS
T-47D breast = tested on: T-47D breast
K-562 leukemia = tested on: K-562 leukemia
NCI-H23 lung = tested on: NCI-H23 lung
CCRF-CEM leukemia = tested on: CCRF-CEM leukemia
U251 CNS = tested on: U251 CNS
DLD-1 colon = tested on: DLD-1 colon
LOX IMVI melanoma = tested on: LOX IMVI melanoma
HT29 colon = tested on: HT29 colon
LXFL 529 NSCLC = tested on: LXFL 529 NSCLC

Row | Compound | TGI (SF-295 CNS) | TGI (T-47D breast) | TGI (K-562 leukemia) | TGI (NCI-H23 lung) | TGI (CCRF-CEM leukemia) | TGI (U251 CNS) | TGI (DLD-1 colon) | TGI (LOX IMVI melanoma) | TGI (HT29 colon) | TGI (LXFL 529 NSCLC) | GI50 (SF-295 CNS) | GI50 (K-562 leukemia) | GI50 (NCI-H23 lung) | GI50 (DLD-1 colon) | GI50 (HT29 colon) | GI50 (CCRF-CEM leukemia) | GI50 (U251 CNS) | GI50 (LOX IMVI melanoma) | GI50 (LXFL 529 NSCLC)
1 | Cc1c2cnccc2c(C)c2c1c1ccccc1n2CCOC(=O)c1ccccc1 | 33 µM | > 100 µM | 44.5 µM | 54.7 µM | 64.4 µM | 44.1 µM | 49.3 µM | 33.7 µM | 54.1 µM |  |  |  |  |  |  |  |  |  | 
2 | COc1ccc(C(=O)C(C(=O)CCC(=O)Nc2ccc(Cl)c(Cl)c2)c2ccc(OC)cc2)cc1 (stereo not drawn) | > 100 µM |  | > 100 µM | > 100 µM | > 100 µM | > 100 µM | > 100 µM | > 100 µM | > 100 µM | > 100 µM |  |  |  |  |  |  |  |  | 
3 | O=S1OC(c2ccccc2)(c2ccccc2)C(c2ccccc2)(c2ccccc2)O1 | > 100 µM |  | > 100 µM | > 100 µM | > 100 µM | > 100 µM | > 100 µM | > 100 µM | > 100 µM | > 100 µM |  |  |  |  |  |  |  |  | 
4 | CC(=O)C1(O)CC2(c3ccccc3)C(=O)C1(c1ccccc1)C(c1ccccc1)=C2c1ccccc1 (stereo not drawn) | > 100 µM |  | > 100 µM | > 100 µM | > 100 µM | > 100 µM | > 100 µM | > 100 µM | > 100 µM | > 100 µM |  |  |  |  |  |  |  |  | 
5 | CC[C@@]1(OP(=O)(O)O)C(=O)OCc2c1cc1n(c2=O)Cc2cc3ccccc3nc2-1 | 0.866 µM and 1.97 µM | 0.867 µM | > 100 µM |  | 0.118 µM and 0.319 µM | 0.747 µM |  | 0.585 µM |  | 70.8 µM | 0.0249 µM | 0.572 µM | 0.0827 µM | 2.56 µM | 0.428 µM |  |  |  | 
6 | N#CC(C(=O)CCCC(=O)Nc1ccccc1[N+](=O)[O-])c1c(Cl)cccc1Cl (stereo not drawn) | > 100 µM |  | > 100 µM | > 100 µM | > 100 µM | > 100 µM | > 100 µM |  | > 100 µM | > 100 µM |  |  |  |  |  |  |  |  | 
7 | COc1ccc(C2COc3c(ccc(OC)c3OC)C2=O)cc1OC (stereo not drawn) | > 100 µM |  | > 100 µM | > 100 µM | > 100 µM | > 100 µM | > 100 µM | > 100 µM | > 100 µM | > 100 µM |  |  |  |  |  |  |  |  | 
8 | O=C(CCc1nnc2s/c(=C\c3ccc([N+](=O)[O-])cc3)c(=O)n12)Nc1ccc(Cl)c(Cl)c1 | 58.4 µM |  | 63.9 µM | 75.6 µM | 51 µM | 31.2 µM | 46.5 µM | 31.9 µM | 71.7 µM | 26.2 µM |  |  |  |  |  |  |  |  | 
9 | O=P1(NCCCl)OCCCN1CCCl (stereo not drawn) | 429 µM | > 500 µM | 466 µM | 454 µM | 400 µM | 431 µM | 431 µM | 402 µM | 448 µM | > 500 µM |  |  |  |  |  |  |  |  | 
10 | COc1ccc2c(c1)[C@@H](NC(C)=O)CCc1cc(OC)c(OC)c(OC)c1-2 | < 0.215 µM | > 100 µM | > 100 µM | 2.88 µM | > 100 µM | 2.02 µM | > 100 µM | > 75.6 µM | 0.124 µM | > 100 µM |  |  |  |  |  |  |  |  | 
11 | NC(N)NCCCc1cn2c(n1)C1CCCN1C(=O)C2Cc1ccccc1 (stereo not drawn) | > 100 µM |  | > 100 µM | > 100 µM | > 100 µM | > 100 µM | > 100 µM | > 100 µM | > 100 µM | > 100 µM |  |  |  |  |  |  |  |  | 
12 | O=C(CCc1n[nH]c(=S)o1)Nc1cc(Cl)ccc1Cl | > 100 µM |  | 52.1 µM | > 100 µM | > 100 µM | > 100 µM | > 100 µM |  | > 100 µM | > 100 µM |  |  |  |  |  |  |  |  | 
13 | O=C1C2C3CC4C5C3C1C5C1(SCCS1)C42 (stereo not drawn) |  |  | > 100 µM |  | > 100 µM | > 100 µM | > 100 µM |  |  | > 100 µM |  |  |  |  |  |  |  |  | 
14 | Cc1ccc(S(=O)c2ccccc2[N+](=O)[O-])cc1 (stereo not drawn) | > 100 µM |  | > 100 µM | > 100 µM | > 100 µM | > 100 µM | > 100 µM | > 100 µM | > 100 µM |  |  |  |  |  |  |  |  |  | 
15 | CC(C)(CN1CCCCC1)C(=O)/C=C/c1ccccc1 | 35.1 µM |  | 24.9 µM | 33.7 µM | 35.4 µM | 57 µM | 54.1 µM | 41.3 µM | 36.4 µM | 34.7 µM |  |  |  |  |  |  |  |  | 
16 | Cc1cc(N(CCC#N)CCC#N)ccc1/C=C(\NC(=O)/C=C/c1ccccc1)C(=O)N=[N+]=[N-] | > 100 µM |  | > 100 µM | > 100 µM | > 100 µM | > 100 µM | > 100 µM | > 100 µM | > 100 µM | > 100 µM |  |  |  |  |  |  |  |  | 
17 | CN(C)CCC(N)(P(=O)([O-])[O-])P(=O)([O-])[O-].N.N.[Pt+2] | > 100 µM |  | > 100 µM |  | > 100 µM | > 100 µM | > 100 µM | > 100 µM | > 100 µM | > 100 µM | > 100 µM | > 100 µM |  | > 100 µM | > 100 µM | > 100 µM | > 100 µM | > 100 µM | > 100 µM
18 | CC(=O)OC(C)(C)C1CC[C@]2(C)/C=C/C(C)C[C@@H](O)/C=C(\C)CC(O)C12 (stereo partly drawn) | > 100 µM |  | > 100 µM | > 100 µM | > 100 µM | > 100 µM | > 100 µM | > 100 µM | > 100 µM | > 100 µM |  |  |  |  |  |  |  |  | 
19 | C/C(=N/NC(=O)c1ccccc1S(N)(=O)=O)C(CN1CCCCC1)C(C1=C(O)C2C=CC=CC2OC1=O)c1ccccc1 (stereo not drawn) | > 100 µM |  | > 100 µM | > 100 µM | 67.7 µM | > 100 µM | > 100 µM | > 100 µM | > 100 µM | > 100 µM |  |  |  |  |  |  |  |  | 
20 | CCN(CC)CC(=O)NC1c2ccccc2Oc2ccccc21 |  |  | > 100 µM | > 100 µM | > 100 µM | > 100 µM | > 100 µM | > 100 µM | > 100 µM | > 100 µM |  |  |  |  |  |  |  |  | 
21 | Cc1c(C(Cc2ccccc2N(C)C(=O)/C=C\C(=O)O)c2c[nH]c3ccccc23)c2ccccc2n1C (stereo not drawn) | 28.8 µM |  | 54.7 µM | 32.8 µM | 37.1 µM | 30.3 µM | 35.2 µM | 29.2 µM | 30.8 µM | 26 µM |  |  |  |  |  |  |  |  | 
22 | CS(=O)(=O)OCCN(CCOS(C)(=O)=O)c1ccc(C=Nc2ccc(-c3csc(COc4ccccc4)n3)cc2)cc1 | 17.8 µM | > 51.8 µM | > 76 µM | 14 µM | 35.6 µM | 25 µM | 29.3 µM | 18.1 µM | 23.6 µM | 25.3 µM |  |  |  |  |  |  |  |  | 
23 | O=C(/C=C/c1ccccc1)NC1C=Nc2ccc([N+](=O)[O-])cc2NC1=O (stereo not drawn) | > 100 µM |  | > 100 µM | > 100 µM | > 100 µM | > 100 µM | > 100 µM | > 100 µM | > 100 µM | > 100 µM |  |  |  |  |  |  |  |  | 
24 | NC1=C(O)c2cccc3cccc(c23)C1=O | > 100 µM |  | > 100 µM | > 100 µM | > 100 µM | > 100 µM | > 100 µM | > 100 µM | > 100 µM | > 100 µM |  |  |  |  |  |  |  |  | 
25 | O=C(O)/C=C/c1ccc(O)c(O)c1 | > 100 µM |  | > 100 µM | > 100 µM | > 100 µM | > 100 µM | > 100 µM | > 100 µM | > 100 µM | > 100 µM |  |  |  |  |  |  |  |  | 
26 | COC(=O)C(=O)C(C#N)c1nc2ccccc2s1 (stereo not drawn) | > 100 µM |  | > 100 µM | > 100 µM | > 100 µM |  | > 100 µM | > 100 µM | > 100 µM | > 100 µM |  |  |  |  |  |  |  |  | 
